Experiment [1] has as its system Tregs. Description: T cell recruitment in the peritoneum (labelled drug-treated Tregs injected into IFN-γ-treated syngeneic recipients). Type of experiment: in vivo, mice. The following applies: for Treg migration / trafficking in vivo: drug-treated PKH26-labelled Tregs injected i.v. into recipients given IFN-γ i.p. 48 hours earlier, harvested after 24 hours. The method, then:
FIG. 3. Drug- or vehicle-treated Tregs labeled with the fluorescent intravital dye PKH26 were injected i.v. into syngeneic recipients treated with IFN-γ i.p. 48 hours earlier. Cells were harvested from the indicated tissues after 24 hours and analyzed by flow cytometry. Representative dot plots from 3 animals are shown in panels A and C. The mean absolute number of labeled cells recovered in 4 animals±SD is shown in panels B and D. (N=1)
(§1) FIG. 20. A: AZD1656 (GCK activator, 1 μM) and vehicle-treated Tregs (2 hours in insulin-free medium) were labeled with different intravital fluorescent dyes, and co-injected into syngeneic recipients that had received IFN-γ i.p. 48 hours earlier. Cells were recovered from the peritoneum or spleen after 24 hours and analyzed by flow cytometry. Representative dot plots are shown. The bar graphs indicate mean absolute number of labeled cells retrieved±SD (n=4 N=2). B-C: expression of PCNA by Tregs stimulated with allogeneic DCs following treatment with either AZD1656 (B) or Clotrimazole (CLT, 1 μM, 2 hours, C) or vehicle alone was measured by flow cytometry. NS, non-stimulated control Tregs. Representative histograms are shown. (n=3, N=3).
FIG. 21. A: ECAR of Treg cells activated with recombinant ICAM-1 or Fc control. CLT or vehicle, as well as other glycolysis-affecting drugs were added as indicated. B: CLT- or vehicle-treated Tregs underwent CD28 or isotype-matched antibody-stimulation, labelled with different intravital fluorescent dyes and injected i.v. in syngeneic recipients that had received IFN-γ i.p. 48 hours earlier. Cells were recovered from the peritoneum (P) or spleen (S) after 24 hours and analyzed by flow cytometry. Representative dot plots are shown. The column graphs indicate mean absolute number of labeled cells retrieved±SD (n=3 N=2). * p<0.05 ***p<0.005; ****p<0.001.
T cell recruitment in the peritoneum. To observe in vivo recruitment of T cells we used the previously described model of T cell recruitment (Mirenda et al., 2007). Either PKH26 or CFSE or DDAO-SE-labelled T cells (10^7) were injected intravenously (i.v.) into mice that hd received IFN-γ (600U) via intraperitoneal injection (i.p.) 48 to 72 hours earlier. Labeled T cells recovered via peritoneal lavage were analyzed 16 hours later using flow cytometry. In addition, localization of Tregs to the spleen, where entry occurs in a passive manner (Fu et al., 2016), was analyzed to ensure that similar numbers/proportion of labeled cells were injected or co-injected in all recipients (internal control).

Experiment [2] concerns Tregs. Description: Treg trans-endothelial migration and chemotaxis transwell assays. Particulars: Tregs pre-treated with drug for 4 hours; through IFN-γ-treated EC monolayers or in response to CCL22 / CXCL10. Type of experiment: cell-based, mouse. The protocol:
FIG. 1. Glycolysis fuels Treg migration. Ex vivo expanded Tregs pre-treated with the indicated drugs or vehicle for 4 hours were left to migrate through 3 μm-pore transwells layered with IFN-γ-treated syngeneic EC monolayers (A-B) or in response chemokine CCL22 through bare filter 5 μm-pore transwells (C-D). Results are expressed as percentage of migrated cells after 24 hours (A-B, n=4, N=2) or at the indicated time-points (C, n=3)±SD. The fold increase in migration was calculated by dividing experimental migration by spontaneous migration measured at 6 hours in two experiments of identical design performed in triplicates±SD.
FIG. 2. Activated Treg phenotype and function and effect of exposure to metabolism-modifying drugs. Tregs were expanded as previously described (Fu et al., 2014). A-B Tregs were treated with the indicated metabolism-targeting drugs for 4-6 hours and extensively washed. Migration of drug-exposed Tregs in response to CXCL10 (300 ng/ml) was assessed by a transwell-based assay. Results are expressed as the mean percentage of migrated cells at the indicated time points±SD. Data obtained at 6 hours from three independent experiments of identical design and normalized by spontaneous migration±SD are shown in panel B. *P<0.05.
FIG. 5. Tregs were treated with the indicated metabolism-targeting drugs for 4-6 hours, extensively washed and cultured overnight in medium alone. Migration of drug-exposed Tregs in response to CCL22 (300 ng/ml, A-B) CXCL10 (300 ng/ml, C-D) was assessed by a 6 hr chemokinesis transwell assay ([…]). Results are expressed as the mean percentage of migrated cells in a typical experiment performed in triplicate±SD (A, C). […]
Lymphocyte trans-endothelial migration and chemotaxis assays. […] The number of migrated T cells was determined by a hemocytometer counting of the cells present in the well media at different time points over a 24-h period. […] The number of migrated cells was determined by a hemocytometer.

Experiment [3] relates to Tregs. Description: ECAR of Treg cells activated with recombinant ICAM-1. Format: cell-based, mouse. Particulars: Tregs activated with recombinant ICAM-1.
Method: A: ECAR of Treg cells activated with recombinant ICAM-1 or Fc control. CLT or vehicle, as well as other glycolysis-affecting drugs were added as indicated. […] Measurement of ECAR and OCR. Real time bioenergetics analysis of extracellular acidification rates (ECAR) and oxygen consumption rates (OCR) of T cells subjected to antibody stimulation was performed using the XF analyzer (Seahorse biosciences). T cells were cultured in serum free, unbuffered XF assay medium (Seahorse biosciences, Cat #102365-100) for 1 hour. The cells were then seeded (6×10^5/well) into the seahorse XF24 cell plates for analysis. Perturbation profiling of the use of metabolic pathways by T cells was achieved by the addition of oligomycin (1 μM), FCCP (1 μM), Antimycin A (1 μM), rotenone (1 μM), D-glucose (10 mM), 2-Deoxy-D-glucose (2DG, 50 mM; all from Seahorse biosciences, Cat #103020-100 and 103015-100). Experiments with the Seahorse system were done with the following assay conditions: 2 min mixture; 2 minutes wait; and 4-5 min measurement. Metabolic parameters were calculated. Experiments were done in at least triplicate wells.
For experiment [4], the system named is CD3/CD28-stimulated Tconv cells. The experiment is described as follows: ECAR and OCR fluxometry (Seahorse) of anti-CD3 plus anti-CD28 stimulated CD4+ T cells. Type of experiment: cell-based, mouse.
Method: Real time analysis of the ECAR and OCR of CD4+ T cells stimulated for 24 hours with anti-CD3 plus anti-CD28 antibodies was performed using fluxometry. Wells were injected first with CLT or Vehicle. A second injection followed at the time point indicated (dashed line) introducing D-glucose into the wells. Subsequently, modulators of glycolysis (A) or cellular respiration (B) were sequentially injected at the indicated time points. […] OCR=Oxygen Consumption Rate: indirect measure of mitochondrial respiration and fatty acid oxidation (FAO). Measurement of ECAR and OCR. Real time bioenergetics analysis of extracellular acidification rates (ECAR) and oxygen consumption rates (OCR) of T cells subjected to antibody stimulation was performed using the XF analyzer (Seahorse biosciences). T cells were cultured in serum free, unbuffered XF assay medium (Seahorse biosciences, Cat #102365-100) for 1 hour. The cells were then seeded (6×10^5/well) into the seahorse XF24 cell plates for analysis. Perturbation profiling of the use of metabolic pathways by T cells was achieved by the addition of oligomycin (1 μM), FCCP (1 μM), Antimycin A (1 μM), rotenone (1 μM), D-glucose (10 mM), 2-Deoxy-D-glucose (2DG, 50 mM; all from Seahorse biosciences, Cat #103020-100 and 103015-100). […] Metabolic parameters were calculated. […]
Experiment [5] has as its system Tregs. Description: PCNA expression by Tregs stimulated with allogeneic DCs (flow cytometry). Format: cell-based, mouse. The following applies: 1 μM, 2 hours. The method, then:
as §1
Intracellular staining. For intracellular Foxp3 staining, eBioscience Anti-Mouse/Rat Foxp3 Staining Set APC (clone FJK-165, Thermo Fisher Scientific Cat #17-5773-82) kit was used. Cells were resuspended (10^7/ml) and stained with surface antigens as mentioned above and then fixed/permeabilized for 30 minutes at 4° C. using Fixation/Permeabilization working solution made from mixing 1 part of the fixation/permebilization concentrate (eBioscience, Cat #00-5123) to 3 parts of the fixation/permebilization diluent (eBioscience, Cat #00-5223). […]
In general terms: In flow cytometry, cells or beads pass a laser one at a time.

For a further experiment, the system named is B6Kd skin allograft. Description: Survival of B6Kd-derived skin grafts transplanted in C57BL/6 recipients. Type of experiment: in vivo, C57BL/6 mice. Particulars: 10 mg/kg twice daily (20 mg/kg daily) for 2 weeks after transplantation.

Molecules are shown by their SMILES.

From the text for B6Kd skin allograft: C57B16 mice received a B6Kd skin graft or syngeneic skin as a control. […] To establish the selectivity of GCK usage by Tregs to sustain their motility, we compared the effect of pharmacological activation of GCK on the survival of B6Kd-derived skin grafts transplanted in C57BL/6 recipients. […] This schedule was designed in order to promote migration of endogenous Tregs during the early stages of the alloresponse. Control groups received saline solution with vehicle alone.

Take `O=CC[C@@H](O)[C@H](O)[C@H](O)CO` [2-DG, 2-deoxyglucose]: in the experiment with Tregs [1], the “Treg migration / trafficking in vivo” value is “migrated inefficiently”. The “Treg migration / motility in vitro” value in the experiment with Tregs [2] is recorded as “migrated inefficiently”.

`CN(C)C(=N)N=C(N)N` [metformin]: the “Treg migration / trafficking in vivo” value in the experiment on Tregs [1] is “increased”. The “Treg migration / motility in vitro” value in the experiment on Tregs [2] was “increased Treg motility”.

In the case of `Clc1ccccc1C(c1ccccc1)(c1ccccc1)n1ccnc1` [CLT, Clotrimazole], the “rICAM-1-mediated induction of glycolysis (ECAR)” value with Tregs [3] was “did not affect”. The “Treg migration to inflamed peritoneum in vivo” value in the experiment with Tregs [1] (drug-treated Tregs with CD28 or isotype antibody stimulation, injected i.v., recovered after 24 hours) was “did not affect”. Further, in experiment [4], the “Glycolytic flux (ECAR)” value is given as “inhibits” and the “Respiration (OCR)” value was “inhibits”. Moreover, the “Treg division (PCNA expression / upregulation)” value in the experiment with Tregs [5] is “effective at inhibiting”.

Consider `CCOC(=O)[C@@]1(CCCCCCOc2ccc(Cl)cc2)CO1` [Etomoxir], for which the “Treg migration / motility in vitro” value with Tregs [2] is given as “Treg migration does not require fatty acid oxidation”.

In the case of `COC[C@H](C)Oc1cc(Oc2cnc(C(=O)N3CCC3)cn2)cc(C(=O)Nc2cnc(C)cn2)c1` [AZD1656, 3-[5-(azetidine-1-carbonyl)pyrazin-2-yl]oxy-5-[(2S)-1-methoxypropan-2-yl]oxy-N-(5-methylpyrazin-2-yl)benzamide], the Skin graft rejection entry in the experiment on B6Kd skin allograft is recorded as “significantly delays”. For the same compound, the “Treg migration to the inflamed tissue” value in the experiment on Tregs [1] (Tregs treated with 1 μM for 2 hours in insulin-free medium, co-injected with vehicle-treated Tregs, peritoneum after 24 hours) is “significantly enhanced”. Besides, the “Treg division (PCNA expression / upregulation)” value in the experiment on Tregs [5] is “did not affect”.

Source of the values: patent publication US11690841B2, “Glycolysis-activating agents for treatment or prevention of disease” (Queen Mary University of London, priority 2017, dated 2023).
